These compounds were tested against T1, recombinant human mPGES-1 (Homo sapiens, UniProt O14684) (assay: mPGES-1 inhibition test (microsomes, PGH2 substrate, HTRF detection of PGE2)). Conditions: inhibition of mPGES-1 at 10 μM.
T1 construct: made in house; host or cells: Rosetta E. coli (microsomal/membrane fraction)
T1 sequence (O14684 1-152): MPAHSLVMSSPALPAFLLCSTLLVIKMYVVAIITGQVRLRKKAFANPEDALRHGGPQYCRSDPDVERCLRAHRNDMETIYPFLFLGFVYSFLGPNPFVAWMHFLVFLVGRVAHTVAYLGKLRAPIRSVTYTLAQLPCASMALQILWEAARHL
Type: biochemical
How it was run: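 Bacterial microsomes with GSH-containing phosphate buffer at pH 7.4 are exposed to test compounds for 25 minutes before a one-minute PGH2 conversion. The quenched, 750-fold diluted mixture is analysed by time-resolved FRET for PGE2.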

Row | Structure (SMILES) | inhibition at 10 µM [%]
1 | O=C(NC1CCC(C(F)(F)F)CC1)c1cc2nc(Nc3c(F)ccc(Cl)c3Cl)[nH]c2cc1OCC(F)(F)F (stereo not drawn) [Example 591, 2-(2,3-Dichloro-6-fluoro-phenylamino)-6-(2,2,2-trifluoro-ethoxy)-N-(4-trans-trifluoromethyl-cyclohex-1-yl) 1H-benzimidazole-5-carboxamide] | 99
2 | O=C(N[C@H]1CC[C@H](C(F)(F)F)CC1)c1cc2nc(Nc3c(Cl)ccc(Cl)c3F)[nH]c2cc1OCC(F)(F)F [Example 592, 2-(3,6-Dichloro-2-fluoro-phenylamino)-N-(4-trans-trifluoromethyl-cyclohex-1-yl)-6-(2,2,2-trifluorethoxy)-1H-benzimidazole-5-carboxamide] | 97
3 | O=C(Nc1ccc(Br)cc1)c1cc2nc(Nc3c(Cl)ccc(Cl)c3F)[nH]c2cc1OCC(F)(F)F [Example 593, 2-(3,6-Dichloro-2-fluoro-phenylamino)-N-(4-bromophenyl)-6-(2,2,2-trifluorethoxy)-1H-benzimidazole-5-carboxamide] | 97
4 | O=C(N[C@H]1CC[C@H](C(F)(F)F)CC1)c1cc2nc(Nc3c(F)ccc(F)c3Cl)[nH]c2cc1OCC(F)(F)F [Example 594, 2-(2-Chloro-3,6-difluoro-phenylamino)-N-(4-trans-trifluoromethyl-cyclohex-1-yl)-6-(2,2,2-trifluorethoxy)-1H-benzimidazole-5-carboxamide] | 94
5 | O=C(Nc1ccc(Br)cc1)c1cc2nc(Nc3c(F)ccc(F)c3Cl)[nH]c2cc1OCC(F)(F)F [Example 595, 2-(2-Chloro-3,6-difluoro-phenylamino)-N-(4-bromophenyl)-6-(2,2,2-trifluorethoxy)-1H-benzimidazole-5-carboxamide] | 100
6 | CC1(C)CCC(NC(=O)c2cc3nc(Nc4c(Cl)ccc(Cl)c4F)[nH]c3cc2F)CC1 [Example 596, 2-(3,6-Dichloro-2-fluoro-phenylamino)-N-(4,4-dimethyl-cyclohex-1-yl)-6-fluoro-1H-benzimidazole-5-carboxamide] | 95
7 | O=C(N[C@H]1CC[C@H](C(F)(F)F)CC1)c1cc2nc(Nc3c(Cl)ccc(Cl)c3F)[nH]c2cc1F [Example 597, 2-(3,6-Dichloro-2-fluoro-phenylamino)-N-(trans-4-trifluoromethyl-cyclohex-1-yl)-6-fluoro-1H-benzimidazole-5-carboxamide] | 100
8 | O=C(Nc1cccc(Cl)c1)c1cc2nc(Nc3c(Cl)ccc(Cl)c3F)[nH]c2cc1F [Example 598, 2-(3,6-Dichloro-2-fluoro-phenylamino)-N-(3-chlorphenyl)-6-fluoro-1H-benzimidazole-5-carboxamide] | 100
9 | CCOc1cc2[nH]c(Nc3c(Cl)ccc(Cl)c3F)nc2cc1C(=O)N[C@H]1CC[C@H](C(F)(F)F)CC1 [Example 599, 2-(3,6-Dichloro-2-fluoro-phenylamino)-6-ethoxy-N-(trans-4-trifluoromethyl-cyclohex-1-yl)-1H-benzimidazole-5-carboxamide] | 92
10 | CCOc1cc2[nH]c(Nc3c(Cl)ccc(Cl)c3F)nc2cc1C(=O)NC1CCC(C)(C)CC1 [Example 600, 2-(3,6-Dichloro-2-fluoro-phenylamino)-N-(4,4-dimethyl-cyclohexyl)-6-ethoxy-1H-benzimidazole-5-carboxamide] | 94
11 | Cn1c(Nc2c(Cl)ccc(Cl)c2F)nc2cc(C(=O)N[C@H]3CC[C@H](C(F)(F)F)CC3)c(F)cc21 [Example 601, 2-(3,6-Dichloro-2-fluoro-phenylamino)-6-fluoro-N-(trans-4-trifluoromethyl-cyclohex-1-yl)-1-methyl-1H-benzimidazole-5-carboxamide] | 92
12 | COc1cc2[nH]c(Nc3c(Cl)ccc(Cl)c3F)nc2cc1C(=O)Nc1ccc(Br)cc1 [Example 602, 2-(3,6-Dichloro-2-fluoro-phenylamino)-6-methoxy-N-(4-bromophenyl)-1H-benzimidazole-5-carboxamide] | 100
13 | CCOc1cc2[nH]c(Nc3c(Cl)ccc(Cl)c3F)nc2cc1C(=O)Nc1cccc(Cl)c1 [Example 603, 2-(3,6-Dichloro-2-fluoro-phenylamino)-N-(3-chloro-phenyl)-6-ethoxy-1H-benzimidazole-5-carboxamide] | 90
14 | CCOc1cc2[nH]c(Nc3c(Cl)ccc(Cl)c3F)nc2cc1C(=O)Nc1ccc(Br)cc1 [Example 604, 2-(3,6-Dichloro-2-fluoro-phenylamino)-N-(4-bromo-phenyl)-6-ethoxy-1H-benzimidazole-5-carboxamide] | 100
15 | CCOc1cc2c(cc1C(=O)NC1CCC(C(F)(F)F)CC1)nc(Nc1c(Cl)ccc(Cl)c1F)n2C (stereo not drawn) [Example 605, 2-(3,6-Dichloro-2-fluoro-phenylamino)-6-ethoxy-N-(4-trans-trifluoromethyl-cyclohex-1-yl)-1-methyl-1H-benzimidazole-5-carboxamide] | 93
16 | Cn1c(Nc2c(Cl)ccc(Cl)c2F)nc2cc(C(=O)NC3CCC4(CC3)CC4)c(F)cc21 [Example 606, 2-(3,6-Dichloro-2-fluoro-phenylamino)-6-fluoro-N-(spiro[2.5]oct-6-yl)-1-methyl-1H-benzimidazole-5-carboxamide] | 94
17 | CCOc1cc2c(cc1C(=O)NC1CCC(C)(C)CC1)nc(Nc1c(Cl)ccc(Cl)c1F)n2C [Example 607, 2-(3,6-Dichloro-2-fluoro-phenylamino)-6-ethoxy-N-(4,4-dimethyl-cyclohex-1-yl)-1-methyl-1H-benzimidazole-5-carboxamide] | 97
18 | O=C(NC1CCC2(CC1)CC2)c1cc2nc(Nc3c(Cl)ccc(Cl)c3F)[nH]c2cc1F [Example 608, 2-(3,6-Dichloro-2-fluoro-phenylamino)-N-(spiro[2.5]oct-6-yl)-6-fluoro-1H-benzimidazole-5-carboxamide] | 92
19 | CCOc1cc2c(cc1C(=O)NC1CCC3(CC1)CC3)nc(Nc1c(Cl)ccc(Cl)c1F)n2C [Example 609, 2-(3,6-Dichloro-2-fluoro-phenylamino)-6-ethoxy-N-(spiro[2.5]oct-6-yl)-1-methyl-1H-benzimidazole-5-carboxamide] | 99
20 | CC(C)Oc1cc2[nH]c(Nc3c(Cl)ccc(Cl)c3F)nc2cc1C(=O)Nc1ccc(Br)cc1 [Example 610, 2-(3,6-Dichloro-2-fluoro-phenylamino)-N-(4-bromo-phenyl)-6-isopropoxy-1H-benzimidazole-5-carboxamide] | 87
21 | CC(C)Oc1cc2[nH]c(Nc3c(Cl)ccc(Cl)c3F)nc2cc1C(=O)NC1CCCCC1 [Example 611, 2-(3,6-Dichloro-2-fluoro-phenylamino)-6-isopropoxy-N-cyclohexyl-1H-benzimidazole-5-carboxamide] | 90
22 | COc1cc2[nH]c(Nc3c(Cl)ccc(Cl)c3F)nc2cc1C(=O)NC1CCCCC1 [Example 612, 2-(3,6-Dichloro-2-fluoro-phenylamino)-N-cyclohexyl-6-methoxy-1H-benzimidazole-5-carboxamide] | 99
23 | COc1cc2[nH]c(Nc3c(Cl)ccc(Cl)c3F)nc2cc1C(=O)NC1CCC2(CC1)CC2 [Example 613, 2-(3,6-Dichloro-2-fluoro-phenylamino)-N-(spiro[2.5]oct-6-yl)-6-methoxy-1H-benzimidazole-5-carboxamide] | 91

From patent publication US8916599B2, “1H-benz imidazole-5-carboxamides as anti-inflammatory agents” (Orexo AB, priority 2008, dated 2014)
